Laboratory results taken from patent US20230067929A1, “HETEROCYCLIC DERIVATIVES, PHARMACEUTICAL COMPOSITIONS AND THEIR USE IN THE TREATMENT, AMELIORATION OR PREVENTION OF CANCER” (Tolremo Therapeutics AG, priority 2018, published 2023).

test system: A375 cells; assay: A375 cell immunofluorescence assay (with 1 μM S1152 and 0.5 μM S1008), EC50; assay type: cell-based; conditions: 1 μM S1152 + 0.5 μM S1008, one day, ratio FL2/FL3 staining (sc-365823 antibody)
Method: One thousand four hundred A375 cells were seeded in each well of a 384 well microplate. One day later they were treated with 1 μM S1152 (Selleckchem) in dimethyl sulfoxide, 0.5 μM S1008 (Selleckchem) and dose ranges of invention compounds for one day in Dulbecco's Modified Eagle's Medium supplemented with 10% fetal calf serum and 2 mM (2S)-2-amino-4-carbamoylbutanoic acid. Wells were incubated with 4% polyoxymethylene (Sigma Aldrich 158127) at ambient temperature. After ten minutes, polyoxymethylene was replaced with phosphate-buffered saline. After one minute phosphate-buffered saline was replaced with 0.2% polyethylene glycol octylphenyl ether in phosphate-buffered saline. After ten minutes at ambient temperature 0.2% polyethylene glycol octylphenyl ether in phosphate-buffered saline was replaced with 1% aminoethanoic acid in phosphate-buffered saline. […] After one hour at 37° C., the solution was replaced with phosphate-buffered saline twice. Phosphate-buffered saline was replaced with 2 μg/ml A-11029 (Invitrogen) in 0.05% polyoxyethylene (20) sorbitan monolaurate in phosphate-buffered saline. […] After one hour at ambient temperature in the dark, signal in wells was measured with a Acumen Cellista. 3,8-Diamino-5-[3-(diethylmethylammonio)propyl]-6-phenylphenanthridinium diiodide-positive objects were defined in FL3 (565-600 nm) with a perimeter between 50-800 μm and a total intensity of 10000-1000000 FLU. Signal in FL2 (500-530 nm) was measured in defined objects. A normalized ratio of total ln FL2 over total ln FL3 staining was log transformed. A non-linear regression (variable slope, 4 parameters) was used to calculate EC50 values using GraphPad Prism (Version 7.0d).

Structure (SMILES)	EC50 [µM]
CCC(=O)N1CCCC(c2nc(Cl)cc(Nc3cccc(F)c3)n2)C1 (stereo not shown)	> 10
CCC(=O)N1CCCC(c2nc(Nc3ccccc3F)cc(-c3ccncc3)n2)C1 (stereo not shown)	> 10
CCC(=O)N1CCCC(c2nc(Nc3cccc(F)c3)cc(-c3cnc(N)nc3)n2)C1 (stereo not shown)	> 10
CCC(=O)N1CCCC(c2nc(Nc3ccccc3F)cc(-c3cccnc3)n2)C1 (stereo not shown)	1 to 10
CCC(=O)N1CCCC(c2nc(Nc3cccc(F)c3)cc(-c3cnc(NC)nc3)n2)C1 (stereo not shown)	> 10
CCC(=O)N1CCCC(c2nc(Nc3cccc(OC)c3)cc(-c3cccnc3)n2)C1 (stereo not shown)	1 to 10
CCC(=O)N1CCC(c2nc(Nc3cccc(F)c3)cc(-c3cccnc3)n2)C1 (stereo not shown)	> 10
CNC(=O)c1cncc(-c2cc(Nc3cccc(F)c3)nc(C3CCCN(C(C)=O)C3)n2)c1 (stereo not shown)	< 1
COc1cncc(-c2cc(Nc3cccc(Cl)c3)nc([C@@H]3CC[C@H](C)N(C(C)=O)C3)n2)c1	< 1
CCC(=O)N1CCCC(c2nc(Nc3ccc(C)cc3)cc(-c3cccnc3)n2)C1 (stereo not shown)	1 to 10
CCC(=O)N1CCCC(c2nc(Nc3ccc(OC)nc3)cc(-c3cccnc3)n2)C1 (stereo not shown)	> 10
CCC(=O)N1CCCC(c2nc(Nc3ccccc3OC)cc(-c3cccnc3)n2)C1 (stereo not shown)	> 10
CCC(=O)N1CCCC(c2nc(Nc3ncccn3)cc(-c3cccnc3)n2)C1 (stereo not shown)	> 10
CCC(=O)N1CCCC(c2nc(Nc3ccc(F)cc3)cc(-c3cccnc3)n2)C1 (stereo not shown)	> 10
CCC(=O)N1CCCC(c2nc(Nc3cccc(C(F)(F)F)c3)cc(-c3cccnc3)n2)C1 (stereo not shown)	> 10
CCC(=O)N1CCCC(c2nc(Nc3cccc(C)c3)cc(-c3cccnc3)n2)C1 (stereo not shown)	1 to 10
CCC(=O)N1CCCC(c2nc(Nc3ccc(OC)cc3)cc(-c3cccnc3)n2)C1 (stereo not shown)	1 to 10
CCC(=O)N1CCCC(c2nc(Nc3ccc(Cl)cc3)cc(-c3cccnc3)n2)C1 (stereo not shown)	1 to 10
CCc1cccc(Nc2cc(-c3cncc(OC)c3)nc(C3CCCN(C(C)=O)C3)n2)c1 (stereo not shown)	1 to 10
COc1cncc(-c2cc(Nc3cccc(C(F)F)c3)nc(C3CCCN(C(C)=O)C3)n2)c1 (stereo not shown)	1 to 10
COc1cncc(-c2cc(Nc3cccc(-n4cnnc4)c3)nc(C3CCCN(C(C)=O)C3)n2)c1 (stereo not shown)	> 10
CC(=O)N1CCCC(c2nc(Nc3cncc(C)c3)cc(-c3cccnc3)n2)C1 (stereo not shown)	1 to 10
CC(=O)N1CCCC(c2nc(Nc3ncccn3)cc(-c3cccnc3)n2)C1 (stereo not shown)	> 10
COc1cncc(-c2cc(Nc3cncc(C)c3)nc([C@@H]3CC[C@H](C)N(C(C)=O)C3)n2)c1	< 1
CCC(=O)N1CCCC(c2nc(Nc3cccc(Cl)c3)cc(-c3cccnc3)n2)C1 (stereo not shown)	1 to 10

Structure (SMILES)	EC50 [µM]
CCC(=O)N1CCCC(c2nc(Nc3ccccc3)cc(-c3cccnc3)n2)C1 (stereo not shown)	1 to 10
CCC(=O)N1CCCC(c2nc(Nc3ccc(O)nc3)cc(-c3cccnc3)n2)C1 (stereo not shown)	> 10
CCC(=O)N1CCCC(c2nc(Nc3ccccc3Cl)cc(-c3cccnc3)n2)C1 (stereo not shown)	1 to 10
CCC(=O)N1CCCC(c2nc(Nc3cc(F)cc(F)c3)cc(-c3cccnc3)n2)C1 (stereo not shown)	1 to 10
CCC(=O)N1CCCC(c2nc(Nc3cc(OC)cc(OC)c3)cc(-c3cccnc3)n2)C1 (stereo not shown)	1 to 10
COC(=O)N1CCCC(c2nc(Nc3cccc(F)c3)cc(-c3cccnc3)n2)C1 (stereo not shown)	1 to 10
Fc1cccc(Nc2cc(-c3cccnc3)nc(C3CCCNC3)n2)c1 (stereo not shown)	> 10
CC(=O)N1CCCC(c2nc(Nc3cccc(F)c3)cc(-c3cccnc3)n2)C1 (stereo not shown)	< 1
O=C(N1CCCC(c2nc(Nc3cccc(F)c3)cc(-c3cccnc3)n2)C1)C(F)(F)F (stereo not shown)	> 10
CC(=O)N1CCCC(c2nc(Nc3cccc(F)c3)cc(-c3ccccc3)n2)C1 (stereo not shown)	1 to 10
COc1cncc(-c2cc(Nc3cccc(F)c3)nc(C3CCCN(C(C)=O)C3)n2)c1 (stereo not shown)	< 1
CC(=O)N1CCCC(c2nc(Nc3cccc(F)c3)cc(-c3cncc(C)c3)n2)C1 (stereo not shown)	< 1
CC(=O)N1CCCC(c2nc(Nc3cccc(F)c3)cc(-c3cncc(C(F)F)c3)n2)C1 (stereo not shown)	< 1
O=C(C1CC1)N1CCCC(c2nc(Nc3cccc(F)c3)cc(-c3cccnc3)n2)C1 (stereo not shown)	1 to 10
CC(C)C(=O)N1CCCC(c2nc(Nc3cccc(F)c3)cc(-c3cccnc3)n2)C1 (stereo not shown)	> 10
[2H]C([2H])([2H])C(=O)N1CCCC(c2nc(Nc3cccc(F)c3)cc(-c3cccnc3)n2)C1 (stereo not shown)	< 1
O=C(CC(F)(F)F)N1CCCC(c2nc(Nc3cccc(F)c3)cc(-c3cccnc3)n2)C1 (stereo not shown)	> 10
CC(F)(F)C(=O)N1CCCC(c2nc(Nc3cccc(F)c3)cc(-c3cccnc3)n2)C1 (stereo not shown)	> 10
O=C(C(F)F)N1CCCC(c2nc(Nc3cccc(F)c3)cc(-c3cccnc3)n2)C1 (stereo not shown)	> 10
O=CN1CCCC(c2nc(Nc3cccc(F)c3)cc(-c3cccnc3)n2)C1 (stereo not shown)	> 10
COCCOCCOCC(=O)N1CCCC(c2nc(Nc3cccc(F)c3)cc(-c3cccnc3)n2)C1 (stereo not shown)	> 10
CCC(=O)N1CCCC(c2nc(Nc3cccc(F)c3)cc(NC3CC3)n2)C1 (stereo not shown)	> 10
CCC(=O)N1CCCC(c2nc(Nc3cccc(F)c3)cc(Nc3cccc(F)c3)n2)C1 (stereo not shown)	> 10
CCC(=O)N1CCCC(c2nc(Nc3cccc(F)c3)cc(Nc3ncccn3)n2)C1 (stereo not shown)	1 to 10
CCC(=O)N1CCCC(c2nc(Nc3cccc(F)c3)cc(NC3CCC3)n2)C1 (stereo not shown)	> 10

Structure (SMILES)	EC50 [µM]
CCC(=O)N1CCCC(c2nc(Nc3cccc(F)c3)cc(Nc3cnccn3)n2)C1 (stereo not shown)	> 10
CCC(=O)N1CCCC(c2nc(Nc3cccc(F)c3)cc(NC3CCCCC3)n2)C1 (stereo not shown)	> 10
CCC(=O)N1CCCC(c2nc(Nc3cccc(F)c3)cc(NC3CCOC3)n2)C1 (stereo not shown)	> 10
CC(=O)N1CCCC(c2nc(Nc3cccc(F)c3)cc(Nc3ncccn3)n2)C1 (stereo not shown)	< 1
CC(=O)N1CCCC(c2nc(Nc3cccc(F)c3)cc(Nc3ccccn3)n2)C1 (stereo not shown)	1 to 10
CC(=O)N1CCCC(c2nc(Nc3ccncc3)cc(Nc3cccc(F)c3)n2)C1 (stereo not shown)	> 10
CC(=O)N1CCCC(c2nc(Nc3cccc(F)c3)cc(NC3CCOCC3)n2)C1 (stereo not shown)	> 10
CC(=O)N1CCCC(c2nc(Nc3cccc(F)c3)cc(NC3CCCOC3)n2)C1 (stereo not shown)	1 to 10
CC(=O)N1CCCC(c2nc(Nc3cncnc3)cc(Nc3cccc(F)c3)n2)C1 (stereo not shown)	1 to 10
CC(=O)N1CCCC(Nc2cc(Nc3cccc(F)c3)nc(C3CCCN(C(C)=O)C3)n2)C1 (stereo not shown)	> 10
CC(=O)N1CCCC(c2nc(Nc3cccnc3)cc(Nc3cccc(F)c3)n2)C1 (stereo not shown)	1 to 10
CC(=O)N1C[C@H](c2nc(Nc3cncc(C)c3)cc(Nc3ncccn3)n2)CC[C@@H]1C	< 1
CCC(=O)N1CCCC(c2nc(NCc3ccccc3)cc(Nc3cccc(F)c3)n2)C1 (stereo not shown)	> 10
CCC(=O)N1CCCC(c2nc(NCCN(C)C)cc(Nc3cccc(F)c3)n2)C1 (stereo not shown)	> 10
CC(C)CN1CCCC(c2nc(Nc3cccc(F)c3)cc(-c3cccnc3)n2)C1 (stereo not shown)	> 10
CCN1CCCC(c2nc(Nc3cccc(F)c3)cc(-c3cccnc3)n2)C1 (stereo not shown)	> 10
CN1CCCC(c2nc(Nc3cccc(F)c3)cc(-c3cccnc3)n2)C1 (stereo not shown)	> 10
CCCN1CCCC(c2nc(Nc3cccc(F)c3)cc(-c3cccnc3)n2)C1 (stereo not shown)	> 10
CCC(=O)N1CCCC(c2nc(NC3CC3)cc(-c3cccnc3)n2)C1 (stereo not shown)	> 10
CCC(=O)N1CCCC(c2nc(NC3CCCCC3)cc(-c3cccnc3)n2)C1 (stereo not shown)	> 10
CCC(=O)N1CCCC(c2nc(NC3CCCC3)cc(-c3cccnc3)n2)C1 (stereo not shown)	> 10
CCC(=O)N1CCCC(c2nc(NCc3ccccc3)cc(-c3cccnc3)n2)C1 (stereo not shown)	> 10
CCC(=O)N1CCCC(c2nc(-c3cccnc3)cc(N3CCOCC3)n2)C1 (stereo not shown)	> 10
